Data on 15 compounds can be found in PubChem BioAssay (NCI).

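Growth conditions: 96-well plates. Treatment: test compound, 48 hours, 5 concentrations. Analysis: linear interpolation between bracketing concentrations; unreached endpoints set to highest concentration. Here, GI50 denotes the concentration required for 50% inhibition of growth. TGI: total growth inhibition.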

Among the test systems are HT29 colon; UACC-257 melanoma; UACC-62 melanoma; SK-MEL-2 melanoma; MALME-3M melanoma; OVCAR-8 ovarian; EKVX NSCLC; NCI-H226 lung; PC-3 prostate.
Holding throughout (assay): inhibition of tumour cell growth, NCI panel, 48 h

As to `CCCCCCCCCCCCN(O)C(=O)c1ccccc1`, the TGI in the assay on HT29 colon is over 100 µM; in the assay on UACC-257 melanoma, 49.1 µM; with UACC-62 melanoma, over 100 µM; in the assay with SK-MEL-2 melanoma it was over 100 µM; in the assay on MALME-3M melanoma, 60.7 µM; with OVCAR-8 ovarian, 74.3 µM. The TGI in the assay on EKVX NSCLC amounted to 84.2 µM.

For the compound `Cn1c2c(c3ccccc31)CCN(CCCCN1CCN(c3cccc(Cl)c3)CC1)C2=O`, the TGI in the assay with HT29 colon stood at 10.5 µM; in the assay on UACC-257 melanoma it was 19.8 µM; with UACC-62 melanoma, 23.6 µM; in the assay on SK-MEL-2 melanoma it was 31.1 µM; with OVCAR-8 ovarian, 48 µM; with EKVX NSCLC it was 69.2 µM.

Consider `O=C1C2c3[nH]c4ccccc4c3[C@@H]3CCCCC3C2C(=O)N1c1ccccc1` (stereo partly specified), for which the TGI is 37 µM in the assay with HT29 colon; 42.2 µM with NCI-H226 lung; 38.5 µM in the assay on UACC-62 melanoma; 38.4 µM in the assay on MALME-3M melanoma; 52.9 µM in the assay with OVCAR-8 ovarian; 37.5 µM with EKVX NSCLC.

With `COc1ccc(-c2ccc(/C=N/n3c(C)nn(CN4CCN(C)CC4)c3=S)o2)c([N+](=O)[O-])c1`, the GI50 with PC-3 prostate was 24.9 µM; in the assay on HT29 colon, 28 µM; in the assay with UACC-62 melanoma, 55.4 µM; in the assay with MALME-3M melanoma, 44.6 µM; with EKVX NSCLC, over 100 µM. Further, the TGI was 92 µM in the assay on PC-3 prostate; over 100 µM in the assay on HT29 colon; over 100 µM with UACC-62 melanoma; over 100 µM in the assay on MALME-3M melanoma; over 100 µM with EKVX NSCLC.

Take `OC(c1ccccn1)C1CNc2ccccc21` (stereo unspecified): the TGI with HT29 colon, with UACC-257 melanoma, in the assay with NCI-H226 lung, in the assay with UACC-62 melanoma, in the assay on SK-MEL-2 melanoma and in the assay with MALME-3M melanoma was over 100 µM throughout. The TGI with OVCAR-8 ovarian and in the assay with EKVX NSCLC was over 100 µM in each case.

As for `CC(=O)OCC1O[C@@H]([S-])C(OC(C)=O)[C@H](OC(C)=O)[C@@H]1OC(C)=O.[Au+].c1ccc(CN2[CH-]N(Cc3ccccc3)C(c3ccccc3)=C2c2ccccc2)cc1`, the GI50 in the assay with PC-3 prostate is 1.83 µM; in the assay on UACC-257 melanoma it was 1.84 µM; in the assay on NCI-H226 lung, 3 µM; in the assay with UACC-62 melanoma, 1.76 µM; in the assay with SK-MEL-2 melanoma it was 1.74 µM; with MALME-3M melanoma, 1.77 µM. Also, the GI50 in the assay on OVCAR-8 ovarian was 2.61 µM. Besides, the TGI in the assay with PC-3 prostate amounted to 3.7 µM; with UACC-257 melanoma it was 4.05 µM; with NCI-H226 lung, 9.04 µM; with UACC-62 melanoma, 3.47 µM; in the assay with SK-MEL-2 melanoma, 3.43 µM; with MALME-3M melanoma, 4.06 µM. In the assay with OVCAR-8 ovarian, the TGI is 7.38 µM.

Take `O=C(CC(=O)C1CCOC1=O)C(=O)Nc1ccc(Cl)cc1Cl` (stereo unspecified): the TGI with HT29 colon, with UACC-257 melanoma, in the assay on NCI-H226 lung, in the assay with UACC-62 melanoma, in the assay with SK-MEL-2 melanoma and in the assay with MALME-3M melanoma was over 100 µM in each case. Besides, the TGI in the assay on OVCAR-8 ovarian and with EKVX NSCLC was over 100 µM each time.

In the case of `Cc1ccc(C)c(NC(=O)CCc2nc(=S)[nH][nH]2)c1`, the TGI with HT29 colon, in the assay on UACC-257 melanoma, in the assay on NCI-H226 lung, with UACC-62 melanoma, in the assay on SK-MEL-2 melanoma and in the assay on MALME-3M melanoma was over 100 µM throughout. Moreover, the TGI in the assay with OVCAR-8 ovarian and in the assay with EKVX NSCLC was over 100 µM each time.

Regarding `COC(OC)[C@@H](C)[C@H](O)[C@](C)(O)C1OC(C)(C)OC(C(C)C=C(C)C)C1C` (stereo partly specified), the TGI with HT29 colon, in the assay with UACC-257 melanoma, in the assay on NCI-H226 lung, in the assay with UACC-62 melanoma, in the assay on SK-MEL-2 melanoma and in the assay on MALME-3M melanoma was over 100 µM in each case. Moreover, the TGI with OVCAR-8 ovarian and with EKVX NSCLC was over 100 µM throughout.

As for `CC(=O)NNc1nc(C)c(C(/C=C/c2ccc(Cl)cc2)=N/NC(=O)C[N+](C)(C)C)s1`, the TGI with HT29 colon, in the assay on UACC-257 melanoma, with NCI-H226 lung, in the assay on UACC-62 melanoma, in the assay on SK-MEL-2 melanoma and in the assay with MALME-3M melanoma was over 100 µM in each case. This compound registered a TGI in the assay on EKVX NSCLC of over 100 µM.

In the case of `COc1cc(-c2cc(=O)c3cc(C)c(C)c(C(=O)O)c3o2)cc(OC)c1OC`, the TGI with HT29 colon, in the assay with UACC-257 melanoma, with UACC-62 melanoma, in the assay with SK-MEL-2 melanoma, in the assay with MALME-3M melanoma and with OVCAR-8 ovarian was over 100 µM throughout. In addition, the TGI with EKVX NSCLC was over 100 µM.

Turning to `COCCOCC(=O)N(CCn1ccc(NC(c2ccccc2)(c2ccccc2)c2ccccc2)nc1=O)CCn1cnc2nc(N)[nH]c(=O)c21`, the TGI with HT29 colon, in the assay with UACC-257 melanoma, with NCI-H226 lung, with UACC-62 melanoma, with SK-MEL-2 melanoma and in the assay with MALME-3M melanoma was over 100 µM each time. In addition, the TGI in the assay with OVCAR-8 ovarian and with EKVX NSCLC was over 100 µM each time.

As for `O=C(O)Cn1c(=O)[nH]c(=O)c2c1ncn2Cc1ccccc1`, the TGI in the assay with HT29 colon, with NCI-H226 lung, with UACC-62 melanoma, with SK-MEL-2 melanoma, in the assay with MALME-3M melanoma and with OVCAR-8 ovarian was over 100 µM throughout. The compound further came in with a TGI with EKVX NSCLC of over 100 µM.

For the compound `N#Cc1ccc(C(c2ccc(C#N)cc2)n2cncn2)cc1`, the GI50 in the assay on PC-3 prostate was over 5000 µM; with HT29 colon, over 5000 µM; in the assay on UACC-257 melanoma it was over 5000 µM; in the assay on NCI-H226 lung, over 5000 µM; in the assay on UACC-62 melanoma, 51.5 µM; with MALME-3M melanoma, over 5000 µM. The GI50 with EKVX NSCLC is over 5000 µM. Moreover, the TGI in the assay on PC-3 prostate, with HT29 colon, with UACC-257 melanoma, in the assay with NCI-H226 lung, in the assay with MALME-3M melanoma and in the assay on OVCAR-8 ovarian was over 5000 µM each time. This compound had a TGI with EKVX NSCLC of over 5000 µM.

Turning to `Cc1nc(Nc2ccc([N+](=O)[O-])cc2)sc1C(/C=C/c1ccc(N(C)C)cc1)=N/NC(=O)c1ccccc1`, the TGI in the assay with HT29 colon is over 100 µM; in the assay with UACC-257 melanoma it was over 100 µM; in the assay with NCI-H226 lung, over 100 µM; with UACC-62 melanoma, 28.5 µM; in the assay on SK-MEL-2 melanoma, over 100 µM; in the assay with MALME-3M melanoma it was over 100 µM. The TGI with OVCAR-8 ovarian and in the assay with EKVX NSCLC was over 100 µM each time.
